Consider 26 compounds from ChEMBL document CHEMBL4725292 (J Med Chem, 2020).

Molecules are shown by their SMILES.

Data set [1] can be described thus: Lipophilicity, logD of the compound at pH 7.4 by chromatographic method. In kind it is physicochemical. The note with it: buffer.
The target of data set [2] is Bromodomain-containing protein 4 (Homo sapiens, UniProt O60885, Y97A). Kind of data set: Displacement of Alexa Fluor 647 labelled ligand from His6-tagged BRD4 BD2 (1 to 477 residues)/BD1 Y97A mutant (unknown origin) after 30 mins by TR-FRET assay. A general note: TR-FRET usually uses a lanthanide donor and a delayed reading to cut background.
In data set [3] the test system is Bromodomain-containing protein 4 (Homo sapiens), O60885 [UNDEFINED MUTATION]. Kind of data set: Selectivity index, […] for His6-thr-tagged BRD4 BD1 (1 to 477 residues)/BD2 Y390A mutant (unknown origin) to pIC50 for His6-tagged BRD4 BD2 (1 to 477 residues)/BD1 Y97A mutant (unknown origin).
For data set [4], the target named is Bromodomain-containing protein 4 (Homo sapiens, UniProt O60885, Y390A). Description: Displacement of Alexa Fluor 647 labelled ligand from His6-thr-tagged BRD4 BD1 (1 to 477 residues)/BD2 Y390A mutant (unknown origin) after 30 mins by TR-FRET assay.
For data set [5], the target named is T1, ATPase family AAA domain-containing protein 2 (Homo sapiens, UniProt Q6PL18).
T1 sequence (Q6PL18 whole entry): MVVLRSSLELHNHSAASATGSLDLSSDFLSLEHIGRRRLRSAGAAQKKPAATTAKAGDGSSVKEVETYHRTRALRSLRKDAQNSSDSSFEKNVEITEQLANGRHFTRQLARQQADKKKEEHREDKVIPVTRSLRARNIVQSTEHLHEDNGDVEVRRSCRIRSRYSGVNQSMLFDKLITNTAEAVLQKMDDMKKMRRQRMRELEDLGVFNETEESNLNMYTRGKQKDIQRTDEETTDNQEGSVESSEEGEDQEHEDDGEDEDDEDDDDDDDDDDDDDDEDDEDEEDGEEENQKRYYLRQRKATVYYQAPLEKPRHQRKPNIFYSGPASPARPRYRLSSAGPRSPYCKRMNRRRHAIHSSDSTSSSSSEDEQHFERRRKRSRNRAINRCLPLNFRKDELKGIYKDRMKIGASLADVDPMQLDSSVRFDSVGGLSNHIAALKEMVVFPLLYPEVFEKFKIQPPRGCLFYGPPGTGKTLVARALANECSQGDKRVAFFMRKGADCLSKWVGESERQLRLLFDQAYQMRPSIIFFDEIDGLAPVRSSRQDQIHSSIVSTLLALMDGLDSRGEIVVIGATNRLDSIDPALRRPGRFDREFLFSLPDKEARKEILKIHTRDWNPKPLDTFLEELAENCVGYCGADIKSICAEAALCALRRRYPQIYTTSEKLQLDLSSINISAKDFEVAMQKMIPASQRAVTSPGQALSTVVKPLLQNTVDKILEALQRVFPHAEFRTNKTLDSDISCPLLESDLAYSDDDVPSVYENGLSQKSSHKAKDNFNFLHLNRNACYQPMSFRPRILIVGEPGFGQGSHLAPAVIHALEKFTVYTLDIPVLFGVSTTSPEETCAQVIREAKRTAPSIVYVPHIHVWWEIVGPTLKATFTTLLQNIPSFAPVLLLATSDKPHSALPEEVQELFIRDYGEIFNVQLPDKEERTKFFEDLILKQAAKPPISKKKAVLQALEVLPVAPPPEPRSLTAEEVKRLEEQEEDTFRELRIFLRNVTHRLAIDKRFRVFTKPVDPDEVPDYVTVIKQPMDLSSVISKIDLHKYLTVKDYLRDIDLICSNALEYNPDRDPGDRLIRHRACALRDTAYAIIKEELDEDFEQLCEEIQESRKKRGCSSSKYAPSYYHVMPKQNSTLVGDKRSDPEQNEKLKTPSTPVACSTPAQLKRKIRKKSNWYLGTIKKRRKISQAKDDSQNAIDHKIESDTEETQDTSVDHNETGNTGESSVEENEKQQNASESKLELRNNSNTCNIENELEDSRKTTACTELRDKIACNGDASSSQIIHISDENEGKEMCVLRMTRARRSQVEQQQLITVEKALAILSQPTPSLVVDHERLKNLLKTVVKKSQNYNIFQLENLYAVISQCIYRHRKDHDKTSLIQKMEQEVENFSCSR
Kind of data set: Inhibition of ATAD2 (unknown origin) by TR-FRET assay.

One may read the chromatographic logD as lipophilicity estimated from chromatographic retention. Higher therefore signals higher lipophilicity. Compound `CO[C@H]1CNC[C@@H](OCC2CCC(F)(F)CC2)[C@@H]1Nc1ncc(-c2cncc(C)c2)c2cc(C)c(=O)[nH]c12` had a chromatographic logD in data set [1] of 3.17.
The term IC50 denotes the concentration at which inhibition is half-maximal. Read a high IC50 as a need for much substance. The compound `Cc1cc2c(-c3cnn(C)c3)cnc(N[C@@H]3CCN(C)C[C@H]3C(=O)NC3CCCCC3)c2[nH]c1=O` came in with a chromatographic logD in data set [1] of 2.43. The results for the IC50 in data set [2] and in data set [4] were 20 µM and 0.0794 µM, respectively. The Selectivity Index in data set [3] stood at 251.
The like results for `Cc1coc(-c2cnc(N[C@@H]3CCN(C)C[C@H]3C(=O)NC3CCCCC3)c3[nH]c(=O)c(C)cc23)c1` were, in that order, 4.46, 20 µM, 0.0398 µM and 501.
In turn, `Cc1cc2c(-c3ccco3)cnc(N[C@H]3CCNC[C@@H]3C(=O)NC3CCCCC3)c2[nH]c1=O` came in with a chromatographic logD in data set [1] of 3.12. The IC50 in data set [2] is 10 µM; in data set [4] it was 1.58 µM.
In the case of `Cc1ccoc1-c1cnc(N[C@@H]2CCN(C)C[C@H]2C(=O)NC2CCCCC2)c2[nH]c(=O)c(C)cc12`, the chromatographic logD in data set [1] was 4.35. The IC50 was 15.8 µM in data set [2] and 0.0501 µM in data set [4]. The compound further had a Selectivity Index in data set [3] of 316.
In data set [1], `Cc1ccc(-c2cnc(N[C@@H]3CCN(C)C[C@H]3C(=O)NC3CCCCC3)c3[nH]c(=O)c(C)cc23)o1` gave a chromatographic logD of 4.33. Besides, the IC50 in data set [2] was 15.8 µM; in data set [4] it was 0.0251 µM. The same compound displayed a Selectivity Index in data set [3] of 631.
In the case of `Cc1cc2c(-c3cccs3)cnc(N[C@@H]3CCN(C)C[C@H]3C(=O)NC3CCCCC3)c2[nH]c1=O`, in data set [1], the chromatographic logD is 4.61. Also, the IC50 in data set [2] is 3.98 µM; in data set [4] it was 0.0158 µM. In data set [3], this compound displayed a Selectivity Index of 251.
In turn, `Cc1ccc(-c2cnc(N[C@@H]3CCN(C)C[C@H]3C(=O)NC3CCCCC3)c3[nH]c(=O)c(C)cc23)s1` showed a chromatographic logD in data set [1] of 5.3. For the same compound, the concentration for half-maximal inhibition (IC50) in data set [2] is more than 50.1 µM; in data set [4] it was 0.0631 µM. The compound also returned a Selectivity Index in data set [3] of more than 794.
`Cc1csc(-c2cnc(N[C@@H]3CCN(C)C[C@H]3C(=O)NC3CCCCC3)c3[nH]c(=O)c(C)cc23)c1`: in data set [1], the chromatographic logD came to 5.27. Besides, the IC50 in data set [2] was 15.8 µM; in data set [4], 0.0501 µM. The same compound registered a Selectivity Index in data set [3] of 316.
`Cc1cc2c(C3=CCCC3)cnc(N[C@@H]3CCNC[C@H]3C(=O)NC3CCCCC3)c2[nH]c1=O` (mixture of isomers) had a chromatographic logD in data set [1] of 4.4. Besides, the IC50 in data set [2] is 39.8 µM; in data set [4] it was 0.2 µM. Further, the Selectivity Index in data set [3] was found to be 200.
`Cc1cc2ccnc(N[C@@H]3CCNC[C@H]3C(=O)N[C@@H]3CCCOC3)c2[nH]c1=O` (mixture of isomers) registered a chromatographic logD in data set [1] of 0.85. The figures for the concentration for half-maximal inhibition (IC50) in data set [5], in data set [2] and in data set [4] were more than 39.8 µM, more than 50.1 µM and 3.98 µM, respectively. The Selectivity Index in data set [3] was more than 10.
`Cc1cc2c(-c3ccccc3)cnc(N[C@@H]3CCNC[C@H]3C(=O)NC3CCCCC3)c2[nH]c1=O` (mixture of isomers) gave a chromatographic logD in data set [1] of 3.36. The IC50 in data set [2] is 25.1 µM; in data set [4], 0.631 µM. This compound also registered a Selectivity Index in data set [3] of 40.
As to `Cc1cc2ccnc(N[C@@H]3CCNC[C@H]3C(=O)NCC3CCCC3)c2[nH]c1=O` (mixture of isomers), the chromatographic logD in data set [1] turned out to be 2.36. For the same compound, the IC50 in data set [5] was more than 39.8 µM; in data set [2], more than 50.1 µM; in data set [4], 1.58 µM. Moreover, the Selectivity Index in data set [3] was more than 30.
The like results for `Cc1cc2ccnc(N[C@@H]3CCNC[C@H]3C(=O)NC3CCOCC3)c2[nH]c1=O` (mixture of isomers) were, in that order, 0.71, more than 39.8 µM, 12.6 µM, 2.51 µM and 5.
With `Cc1cc2c(C3=CCOCC3)cnc(N[C@@H]3CCNC[C@H]3C(=O)NC3CCCCC3)c2[nH]c1=O` (mixture of isomers), the chromatographic logD in data set [1] was determined as 2.07. Also, the IC50 was 39.8 µM in data set [2] and 1.26 µM in data set [4]. In data set [3], this compound had a Selectivity Index of 30.
In data set [1], `Cc1cc2c(-c3cnn(C)c3)cnc(N[C@@H]3CCNC[C@H]3C(=O)NC3CCCCC3)c2[nH]c1=O` (mixture of isomers) showed a chromatographic logD of 1.47. The IC50 in data set [2] was 15.8 µM; in data set [4], 0.158 µM. The Selectivity Index in data set [3] was 100.
With `Cc1cc2ccnc(N[C@@H]3CCNC[C@H]3C(=O)NCC(C)C)c2[nH]c1=O` (mixture of isomers), the chromatographic logD in data set [1] was found to be 1.6. Besides, the IC50 in data set [5] is more than 39.8 µM; in data set [2], more than 50.1 µM; in data set [4], 2 µM. Besides, in data set [3], the Selectivity Index is more than 25.
`Cc1cc2c(-c3ccsc3)cnc(N[C@@H]3CCNC[C@H]3C(=O)NC3CCCCC3)c2[nH]c1=O` (mixture of isomers) registered a chromatographic logD in data set [1] of 3.79. The IC50 was more than 50.1 µM in data set [2] and 0.1 µM in data set [4]. The compound further showed a Selectivity Index in data set [3] of more than 501.
Turning to `Cc1cc2c(C3=CCCCC3)cnc(N[C@@H]3CCNC[C@H]3C(=O)NC3CCCCC3)c2[nH]c1=O` (mixture of isomers), the chromatographic logD in data set [1] stood at 4.78. The IC50 was 12.6 µM in data set [2] and 1 µM in data set [4]. Further, the Selectivity Index in data set [3] turned out to be 10.
As for `Cc1cc2ccnc(N[C@@H]3CCNC[C@H]3C(=O)N[C@H]3CCCOC3)c2[nH]c1=O` (mixture of isomers), the chromatographic logD in data set [1] came to 0.98. Also, the IC50 in data set [5] was more than 39.8 µM; in data set [2], more than 50.1 µM; in data set [4], 25.1 µM. The compound further showed a Selectivity Index in data set [3] of more than 2.
With `Cc1cc2ccnc(N[C@@H]3CCNC[C@H]3C(=O)NCC3CC3)c2[nH]c1=O` (mixture of isomers), the chromatographic logD in data set [1] is 1.05. The IC50 in data set [5] was more than 39.8 µM; in data set [2] it was more than 50.1 µM; in data set [4], 3.16 µM. Further, the Selectivity Index in data set [3] was more than 15.
In turn, `Cc1cc2c(-c3ccoc3)cnc(N[C@@H]3CCNC[C@H]3C(=O)NC3CCCCC3)c2[nH]c1=O` (mixture of isomers) yielded a chromatographic logD in data set [1] of 2.91. Moreover, the IC50 in data set [2] was 12.6 µM; in data set [4], 0.0398 µM. The same compound displayed a Selectivity Index in data set [3] of 316.
`C/C=C/c1cnc(N[C@@H]2CCNC[C@H]2C(=O)NC2CCCCC2)c2[nH]c(=O)c(C)cc12` (racemic) came in with a chromatographic logD in data set [1] of 3.55. In addition, the IC50 in data set [2] was 31.6 µM; in data set [4] it was 0.126 µM. This compound came in with a Selectivity Index in data set [3] of 250.
For `Cc1cc2c(-c3cccs3)cnc(N[C@@H]3CCNC[C@H]3C(=O)NC3CCCCC3)c2[nH]c1=O` (racemic) the same measures were 3.23, 31.6 µM, 0.0501 µM and 630.
As to `Cc1ccsc1-c1cnc(N[C@@H]2CCN(C)C[C@H]2C(=O)NC2CCCCC2)c2[nH]c(=O)c(C)cc12` (relative stereo), the chromatographic logD in data set [1] was 5.13. Moreover, the IC50 in data set [2] was 31.6 µM; in data set [4], 0.1 µM. This compound also returned a Selectivity Index in data set [3] of 316.
In data set [1], `Cc1cncc(-c2cnc(N[C@@H]3CCNC[C@H]3C(=O)NC3CCCCC3)c3[nH]c(=O)c(C)cc23)c1` (relative stereo) registered a chromatographic logD of 2.51. For the same compound, the IC50 was more than 50.1 µM in data set [2] and 1.26 µM in data set [4]. In data set [3], the Selectivity Index was more than 40.
